PubChem BioAssay (NCI)
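GI50 = concentration required for 50% inhibition of growth. TGI: total growth inhibition.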

Columns and labels:
Test in all cases: NCI tumour cell line growth inhibition, 384-well format
UACC-62 melanoma = system: UACC-62 melanoma
A549 NSCLC = system: A549 NSCLC
NCI-H460 NSCLC = system: NCI-H460 NSCLC
SN12C renal = system: SN12C renal
SK-MEL-28 melanoma = system: SK-MEL-28 melanoma
T-47D breast = system: T-47D breast
CAKI-1 renal = system: CAKI-1 renal
HL-60(TB) leukemia = system: HL-60(TB) leukemia
NCI-H322M lung = system: NCI-H322M lung
KM12 colon = system: KM12 colon
COLO 205 colon = system: COLO 205 colon
NCI/ADR-RES ovarian = system: NCI/ADR-RES ovarian
NCI-H226 lung = system: NCI-H226 lung
NCI-H23 lung = system: NCI-H23 lung
MALME-3M melanoma = system: MALME-3M melanoma
LOX IMVI melanoma = system: LOX IMVI melanoma
RPMI-8226 leukemia = system: RPMI-8226 leukemia
HCT-15 colon = system: HCT-15 colon
HT29 colon = system: HT29 colon
MDA-MB-231 breast = system: MDA-MB-231 breast
SNB-75 CNS = system: SNB-75 CNS
ACHN renal = system: ACHN renal
MDA-MB-435 melanoma = system: MDA-MB-435 melanoma
OVCAR-4 ovarian = system: OVCAR-4 ovarian
EKVX NSCLC = system: EKVX NSCLC
HOP-62 NSCLC = system: HOP-62 NSCLC
TK-10 renal = system: TK-10 renal
M14 melanoma = system: M14 melanoma
OVCAR-5 ovarian = system: OVCAR-5 ovarian
HOP-92 NSCLC = system: HOP-92 NSCLC
SNB-19 CNS = system: SNB-19 CNS
MOLT-4 leukemia = system: MOLT-4 leukemia
OVCAR-8 ovarian = system: OVCAR-8 ovarian
DU-145 prostate = system: DU-145 prostate
A498 renal = system: A498 renal
RXF 393 renal = system: RXF 393 renal
NCI-H522 lung = system: NCI-H522 lung
UACC-257 melanoma = system: UACC-257 melanoma
MDA-MB-468 breast = system: MDA-MB-468 breast
BT-549 breast = system: BT-549 breast
MCF7 breast = system: MCF7 breast
SF-539 CNS = system: SF-539 CNS
OVCAR-3 ovarian = system: OVCAR-3 ovarian
PC-3 prostate = system: PC-3 prostate
SK-OV-3 ovarian = system: SK-OV-3 ovarian
U251 glioblastoma = system: U251 glioblastoma
SF-295 CNS = system: SF-295 CNS
SF-268 CNS = system: SF-268 CNS
SR leukemia = system: SR leukemia
SK-MEL-5 melanoma = system: SK-MEL-5 melanoma
HS 578T breast = system: HS 578T breast
HCC-2998 colon = system: HCC-2998 colon
HCT-116 colon = system: HCT-116 colon
IGROV1 ovarian = system: IGROV1 ovarian

Molecule `CCOc1ccccc1N=Nc1c(C)[nH]n(-c2nc(-c3ccccc3)cs2)c1=O` has a GI50 (UACC-62 melanoma) greater than 100 µM, a TGI (UACC-62 melanoma) greater than 100 µM and a GI50 (A549 NSCLC) greater than 100 µM. The TGI (A549 NSCLC) was greater than 100 µM, the GI50 (NCI-H460 NSCLC) was greater than 100 µM and the TGI (NCI-H460 NSCLC) was greater than 100 µM. The GI50 (SN12C renal) was greater than 100 µM, the TGI (SN12C renal) was greater than 100 µM and the GI50 (SK-MEL-28 melanoma) was greater than 100 µM. The TGI (SK-MEL-28 melanoma) was greater than 100 µM, the GI50 (T-47D breast) was greater than 100 µM and the TGI (T-47D breast) was greater than 100 µM. The GI50 (CAKI-1 renal) was greater than 100 µM, the TGI (CAKI-1 renal) was greater than 100 µM and the GI50 (HL-60(TB) leukemia) was 21.4 µM. For the same molecule, the TGI (HL-60(TB) leukemia) was greater than 100 µM, the GI50 (NCI-H322M lung) was greater than 100 µM and the TGI (NCI-H322M lung) was greater than 100 µM. For the same molecule, the GI50 (KM12 colon) was greater than 100 µM, the TGI (KM12 colon) was greater than 100 µM and the GI50 (COLO 205 colon) was greater than 100 µM. For the same molecule, the TGI (COLO 205 colon) was greater than 100 µM, the GI50 (NCI/ADR-RES ovarian) was greater than 100 µM and the TGI (NCI/ADR-RES ovarian) was greater than 100 µM. It also gave a GI50 (NCI-H226 lung) greater than 100 µM, a TGI (NCI-H226 lung) greater than 100 µM and a GI50 (NCI-H23 lung) greater than 100 µM. The TGI (NCI-H23 lung) was greater than 100 µM, the GI50 (MALME-3M melanoma) was greater than 100 µM and the TGI (MALME-3M melanoma) was greater than 100 µM. It also gave a GI50 (LOX IMVI melanoma) greater than 100 µM, a TGI (LOX IMVI melanoma) greater than 100 µM and a GI50 (RPMI-8226 leukemia) of 53.9 µM. The TGI (RPMI-8226 leukemia) was greater than 100 µM, the GI50 (HCT-15 colon) was greater than 100 µM and the TGI (HCT-15 colon) was greater than 100 µM. The GI50 (HT29 colon) was greater than 100 µM, the TGI (HT29 colon) was greater than 100 µM and the GI50 (MDA-MB-231 breast) was greater than 100 µM. The TGI (MDA-MB-231 breast) was greater than 100 µM, the GI50 (SNB-75 CNS) was greater than 100 µM and the TGI (SNB-75 CNS) was greater than 100 µM. For the same molecule, the GI50 (ACHN renal) was greater than 100 µM, the TGI (ACHN renal) was greater than 100 µM and the GI50 (MDA-MB-435 melanoma) was greater than 100 µM. It also gave a TGI (MDA-MB-435 melanoma) greater than 100 µM, a GI50 (OVCAR-4 ovarian) greater than 100 µM and a TGI (OVCAR-4 ovarian) greater than 100 µM. For the same molecule, the GI50 (EKVX NSCLC) was greater than 100 µM, the TGI (EKVX NSCLC) was greater than 100 µM and the GI50 (HOP-62 NSCLC) was greater than 100 µM. It also gave a TGI (HOP-62 NSCLC) greater than 100 µM, a GI50 (TK-10 renal) greater than 100 µM and a TGI (TK-10 renal) greater than 100 µM. It also gave a GI50 (M14 melanoma) greater than 100 µM, a TGI (M14 melanoma) greater than 100 µM and a GI50 (OVCAR-5 ovarian) greater than 100 µM. For the same molecule, the TGI (OVCAR-5 ovarian) was greater than 100 µM, the GI50 (HOP-92 NSCLC) was greater than 100 µM and the TGI (HOP-92 NSCLC) was greater than 100 µM. For the same molecule, the GI50 (SNB-19 CNS) was greater than 100 µM, the TGI (SNB-19 CNS) was greater than 100 µM and the GI50 (MOLT-4 leukemia) was 98.9 µM. It also gave a TGI (MOLT-4 leukemia) greater than 100 µM, a GI50 (OVCAR-8 ovarian) greater than 100 µM and a TGI (OVCAR-8 ovarian) greater than 100 µM. It also gave a GI50 (DU-145 prostate) greater than 100 µM, a TGI (DU-145 prostate) greater than 100 µM and a GI50 (A498 renal) greater than 100 µM. It also gave a TGI (A498 renal) greater than 100 µM, a GI50 (RXF 393 renal) greater than 100 µM and a TGI (RXF 393 renal) greater than 100 µM. For the same molecule, the GI50 (NCI-H522 lung) was greater than 100 µM, the TGI (NCI-H522 lung) was greater than 100 µM and the GI50 (UACC-257 melanoma) was greater than 100 µM. The TGI (UACC-257 melanoma) was greater than 100 µM, the GI50 (MDA-MB-468 breast) was 1.47 µM and the TGI (MDA-MB-468 breast) was 9.75 µM. For the same molecule, the GI50 (BT-549 breast) was greater than 100 µM, the TGI (BT-549 breast) was greater than 100 µM and the GI50 (MCF7 breast) was greater than 100 µM. It also gave a TGI (MCF7 breast) greater than 100 µM, a GI50 (SF-539 CNS) greater than 100 µM and a TGI (SF-539 CNS) greater than 100 µM. It also gave a GI50 (OVCAR-3 ovarian) greater than 100 µM, a TGI (OVCAR-3 ovarian) greater than 100 µM and a GI50 (PC-3 prostate) greater than 100 µM. For the same molecule, the TGI (PC-3 prostate) was greater than 100 µM, the GI50 (SK-OV-3 ovarian) was greater than 100 µM and the TGI (SK-OV-3 ovarian) was greater than 100 µM. The GI50 (U251 glioblastoma) was greater than 100 µM, the TGI (U251 glioblastoma) was greater than 100 µM and the GI50 (SF-295 CNS) was greater than 100 µM. The TGI (SF-295 CNS) was greater than 100 µM, the GI50 (SF-268 CNS) was greater than 100 µM and the TGI (SF-268 CNS) was greater than 100 µM. It also gave a GI50 (SR leukemia) greater than 100 µM, a TGI (SR leukemia) greater than 100 µM and a GI50 (SK-MEL-5 melanoma) greater than 100 µM. The TGI (SK-MEL-5 melanoma) was greater than 100 µM, the GI50 (HS 578T breast) was greater than 100 µM and the TGI (HS 578T breast) was greater than 100 µM. The GI50 (HCC-2998 colon) was greater than 100 µM, the TGI (HCC-2998 colon) was greater than 100 µM and the GI50 (HCT-116 colon) was greater than 100 µM. It also gave a TGI (HCT-116 colon) greater than 100 µM, a GI50 (IGROV1 ovarian) greater than 100 µM and a TGI (IGROV1 ovarian) greater than 100 µM.
